# Results from US20260158011A1 (Achieve Life Sciences, Inc., priority 2023, published 2026).
# Tested on: adult e-cigarette users
# Settings: 12 Weeks, N = 106, Safety Set
# Excerpt: A second measurement consisted of biochemically verified continuous vaping abstinence at any time during treatment, with vaping abstinence at Week 3-6 or Week 6-9 for of cytisinicline treatment vs placebo. 7-day point prevalence rates were compared for vaping abstinence (Week 2 to 12) (FIG. 62). An additional measurement included reduction in daily vaping as measured by cotinine, where cytisinicline treatment vs placebo for a reduction in nicotine vaping using weekly quantitative cotinine levels from Week 2 to Week 12. Safety was assessed by adverse effects and serious adverse effects, considering number, severity, and attribution to study drug.
structure (smiles),measurement,value
"O=c1cccc2n1C[C@@H]1CNC[C@H]2C1 [cytisine, (−)-Cytisine]","At Least One AE, Events",123 Events
same,"At Least One AE, subjects",56 (52.8) n (%)
same,At Least One Related Serious TEAE,0 n (%)/Events
same,At Least One Serious TEAE,0 n (%)/Events
same,"At Least One TEAE Leading to Dose Reduction, Dose Interrupted or Study Drug Discontinuation",7 (6.6) n (%)
same,Subjects with Dose Reduction,3 (2.8) n (%)
same,"TEAE Abdominal discomfort, subjects %",(0.9) %
same,"TEAE Abdominal discomfort, subjects n",1 n
same,"TEAE Abnormal dreams, subjects %",(12.3) %
same,"TEAE Abnormal dreams, subjects n",13 n
same,"TEAE Action Taken With Study Drug: Dose Interrupted, Events",1 Events
same,"TEAE Action Taken With Study Drug: Dose Interrupted, subjects",1 (0.9) n (%)
same,"TEAE Action Taken With Study Drug: Dose Not Changed, Events",101 Events
same,"TEAE Action Taken With Study Drug: Dose Not Changed, subjects",51 (48.1) n (%)
same,"TEAE Action Taken With Study Drug: Dose Reduced, Events",3 Events
same,"TEAE Action Taken With Study Drug: Dose Reduced, subjects",3 (2.8) n (%)
same,"TEAE Action Taken With Study Drug: Drug Withdrawn, Events",7 Events
same,"TEAE Action Taken With Study Drug: Drug Withdrawn, subjects",4 (3.8) n (%)
same,"TEAE Action Taken With Study Drug: Not Applicable, Events",7 Events
same,"TEAE Action Taken With Study Drug: Not Applicable, subjects",5 (4.7) n (%)
same,"TEAE Agitation, subjects",0 n (%)
same,"TEAE Akathisia, subjects %",(0.9) %
same,"TEAE Akathisia, subjects n",1 n
same,"TEAE Alanine aminotransferase increased, subjects",0 n (%)
same,"TEAE Alveolar osteitis, subjects",0 n (%)
same,"TEAE Anal fissure, subjects %",(0.9) %
same,"TEAE Anal fissure, subjects n",1 n
same,"TEAE Animal bite, subjects %",(0.9) %
same,"TEAE Animal bite, subjects n",1 n
same,"TEAE Anxiety, subjects %",(9.4) %
same,"TEAE Anxiety, subjects n",10 n
same,"TEAE Aspartate aminotransferase increased, subjects",0 n (%)
same,"TEAE Attention deficit hyperactivity disorder, subjects %",(0.9) %
same,"TEAE Attention deficit hyperactivity disorder, subjects n",1 n
same,"TEAE Back pain, subjects %",(0.9) %
same,"TEAE Back pain, subjects n",1 n
same,"TEAE Bronchitis, subjects %",(1.9) %
same,"TEAE Bronchitis, subjects n",2 n
same,"TEAE Chlamydial infection, subjects %",(0.9) %
same,"TEAE Chlamydial infection, subjects n",1 n
same,"TEAE Concussion, subjects",0 n (%)
same,"TEAE Constipation, subjects %",(1.9) %
same,"TEAE Constipation, subjects n",2 n
same,"TEAE Decreased appetite, subjects %",(0.9) %
same,"TEAE Decreased appetite, subjects n",1 n
same,"TEAE Depressed mood, subjects",0 n (%)
same,"TEAE Depression, subjects",0 n (%)
same,"TEAE Dermatitis contact, subjects %",(0.9) %
same,"TEAE Dermatitis contact, subjects n",1 n
same,"TEAE Disturbance in attention, subjects %",(0.9) %
same,"TEAE Disturbance in attention, subjects n",1 n
same,"TEAE Dizziness, subjects %",(2.8) %
same,"TEAE Dizziness, subjects n",3 n
same,"TEAE Dry mouth, subjects %",(1.9) %
same,"TEAE Dry mouth, subjects n",2 n
same,"TEAE Dyspepsia, subjects %",(0.9) %
same,"TEAE Dyspepsia, subjects n",1 n
same,"TEAE Ear infection, subjects",0 n (%)
same,"TEAE Eye pruritus, subjects %",(0.9) %
same,"TEAE Eye pruritus, subjects n",1 n
same,"TEAE Fatigue, subjects %",(5.7) %
same,"TEAE Fatigue, subjects n",6 n
same,"TEAE Female sterilisation, subjects %",(0.9) %
same,"TEAE Female sterilisation, subjects n",1 n
same,"TEAE Gastroenteritis norovirus, subjects",0 n (%)
same,"TEAE Gastroenteritis viral, subjects",0 n (%)
same,"TEAE Gastroenteritis, subjects %",(1.9) %
same,"TEAE Gastroenteritis, subjects n",2 n
same,"TEAE Gout, subjects %",(0.9) %
same,"TEAE Gout, subjects n",1 n
same,"TEAE Headache, subjects %",(6.6) %
same,"TEAE Headache, subjects n",7 n
same,"TEAE Hot flush, subjects %",(0.9) %
same,"TEAE Hot flush, subjects n",1 n
same,"TEAE Hyperhidrosis, subjects",0 n (%)
same,"TEAE Increased appetite, subjects %",(0.9) %
same,"TEAE Increased appetite, subjects n",1 n
same,"TEAE Insomnia, subjects %",(10.4) %
same,"TEAE Insomnia, subjects n",11 n
same,"TEAE Irritability, subjects %",(2.8) %
same,"TEAE Irritability, subjects n",3 n
same,"TEAE Leading to Dose Reduction, Dose Interrupted or Study Drug Discontinuation: Abdominal discomfort",1 (0.9) n (%)
same,"TEAE Leading to Dose Reduction, Dose Interrupted or Study Drug Discontinuation: Abnormal dreams",1 (0.9) n (%)
same,"TEAE Leading to Dose Reduction, Dose Interrupted or Study Drug Discontinuation: Anal fissure",1 (0.9) n (%)
same,"TEAE Leading to Dose Reduction, Dose Interrupted or Study Drug Discontinuation: Anxiety",2 (1.9) n (%)
same,"TEAE Leading to Dose Reduction, Dose Interrupted or Study Drug Discontinuation: Depression",0 n (%)
same,"TEAE Leading to Dose Reduction, Dose Interrupted or Study Drug Discontinuation: Fatigue",1 (0.9) n (%)
same,"TEAE Leading to Dose Reduction, Dose Interrupted or Study Drug Discontinuation: Headache",0 n (%)
same,"TEAE Leading to Dose Reduction, Dose Interrupted or Study Drug Discontinuation: Insomnia",2 (1.9) n (%)
same,"TEAE Leading to Dose Reduction, Dose Interrupted or Study Drug Discontinuation: Irritability",1 (0.9) n (%)
same,"TEAE Leading to Dose Reduction, Dose Interrupted or Study Drug Discontinuation: Nausea",0 n (%)
same,"TEAE Leading to Dose Reduction, Dose Interrupted or Study Drug Discontinuation: Panic attack",2 (1.9) n (%)
same,"TEAE Leading to Dose Reduction, Dose Interrupted or Study Drug Discontinuation: Pregnancy",0 n (%)
same,"TEAE Menorrhagia, subjects %",(0.9) %
same,"TEAE Menorrhagia, subjects n",1 n
same,"TEAE Migraine, subjects %",(0.9) %
